Measurements published in ChEMBL document CHEMBL5678818, “Discovery of potent SOS1 inhibitors that block RAS activation via disruption of the RAS-SOS1 interaction” (Proc Natl Acad Sci U S A, 2019).

Assays:
[1] = biological target: Serine/threonine-protein kinase 24 (Homo sapiens) (UniProt Q9Y6E0); experiment: Inhibition of MST3 (unknown origin) assessed as residual activity at 1000 nM by KINOMEscan analysis relative to control
[2] = tested on: Phosphatidylinositol 4,5-bisphosphate 3-kinase catalytic subunit alpha isoform (Homo sapiens), P42336 [Q546K]; experiment: Inhibition of PIK3CA Q546K mutant (unknown origin) assessed as residual activity at 1000 nM by KINOMEscan analysis relative to control
[3] = biological target: T1, cGMP-dependent protein kinase 1 (Homo sapiens) (UniProt Q13976); experiment: Inhibition of PRKG1 (unknown origin) assessed as residual activity at 1000 nM by KINOMEscan analysis relative to control
T1 sequence (whole entry): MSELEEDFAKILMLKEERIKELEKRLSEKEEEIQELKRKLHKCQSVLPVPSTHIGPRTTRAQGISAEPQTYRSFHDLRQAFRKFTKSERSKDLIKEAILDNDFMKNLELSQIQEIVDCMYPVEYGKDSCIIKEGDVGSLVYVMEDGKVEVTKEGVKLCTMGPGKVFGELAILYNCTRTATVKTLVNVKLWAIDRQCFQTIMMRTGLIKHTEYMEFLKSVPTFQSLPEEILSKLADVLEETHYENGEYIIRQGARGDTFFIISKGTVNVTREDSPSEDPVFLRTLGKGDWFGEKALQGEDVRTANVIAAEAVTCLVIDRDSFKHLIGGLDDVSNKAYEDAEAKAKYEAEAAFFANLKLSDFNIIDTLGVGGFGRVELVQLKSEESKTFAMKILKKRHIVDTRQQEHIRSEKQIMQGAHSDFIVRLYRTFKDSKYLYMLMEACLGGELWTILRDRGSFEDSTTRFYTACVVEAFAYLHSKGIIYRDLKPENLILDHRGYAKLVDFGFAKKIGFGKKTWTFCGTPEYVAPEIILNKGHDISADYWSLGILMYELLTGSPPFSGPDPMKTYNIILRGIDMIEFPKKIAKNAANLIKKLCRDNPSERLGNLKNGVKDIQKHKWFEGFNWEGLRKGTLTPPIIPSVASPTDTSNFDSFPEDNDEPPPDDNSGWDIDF

[4] = biological target: Ribosomal protein S6 kinase alpha-6 (Homo sapiens) (UniProt Q9UK32); experiment: Inhibition of C-terminal RSK4 kinetic domain 2 (unknown origin) assessed as residual activity at 1000 nM by KINOMEscan analysis relative to control
[5] = biological target: T2, Serine/threonine-protein kinase 36 (Homo sapiens) (UniProt Q9NRP7); experiment: Inhibition of STK36 (unknown origin) assessed as residual activity at 1000 nM by KINOMEscan analysis relative to control
T2 sequence (whole entry): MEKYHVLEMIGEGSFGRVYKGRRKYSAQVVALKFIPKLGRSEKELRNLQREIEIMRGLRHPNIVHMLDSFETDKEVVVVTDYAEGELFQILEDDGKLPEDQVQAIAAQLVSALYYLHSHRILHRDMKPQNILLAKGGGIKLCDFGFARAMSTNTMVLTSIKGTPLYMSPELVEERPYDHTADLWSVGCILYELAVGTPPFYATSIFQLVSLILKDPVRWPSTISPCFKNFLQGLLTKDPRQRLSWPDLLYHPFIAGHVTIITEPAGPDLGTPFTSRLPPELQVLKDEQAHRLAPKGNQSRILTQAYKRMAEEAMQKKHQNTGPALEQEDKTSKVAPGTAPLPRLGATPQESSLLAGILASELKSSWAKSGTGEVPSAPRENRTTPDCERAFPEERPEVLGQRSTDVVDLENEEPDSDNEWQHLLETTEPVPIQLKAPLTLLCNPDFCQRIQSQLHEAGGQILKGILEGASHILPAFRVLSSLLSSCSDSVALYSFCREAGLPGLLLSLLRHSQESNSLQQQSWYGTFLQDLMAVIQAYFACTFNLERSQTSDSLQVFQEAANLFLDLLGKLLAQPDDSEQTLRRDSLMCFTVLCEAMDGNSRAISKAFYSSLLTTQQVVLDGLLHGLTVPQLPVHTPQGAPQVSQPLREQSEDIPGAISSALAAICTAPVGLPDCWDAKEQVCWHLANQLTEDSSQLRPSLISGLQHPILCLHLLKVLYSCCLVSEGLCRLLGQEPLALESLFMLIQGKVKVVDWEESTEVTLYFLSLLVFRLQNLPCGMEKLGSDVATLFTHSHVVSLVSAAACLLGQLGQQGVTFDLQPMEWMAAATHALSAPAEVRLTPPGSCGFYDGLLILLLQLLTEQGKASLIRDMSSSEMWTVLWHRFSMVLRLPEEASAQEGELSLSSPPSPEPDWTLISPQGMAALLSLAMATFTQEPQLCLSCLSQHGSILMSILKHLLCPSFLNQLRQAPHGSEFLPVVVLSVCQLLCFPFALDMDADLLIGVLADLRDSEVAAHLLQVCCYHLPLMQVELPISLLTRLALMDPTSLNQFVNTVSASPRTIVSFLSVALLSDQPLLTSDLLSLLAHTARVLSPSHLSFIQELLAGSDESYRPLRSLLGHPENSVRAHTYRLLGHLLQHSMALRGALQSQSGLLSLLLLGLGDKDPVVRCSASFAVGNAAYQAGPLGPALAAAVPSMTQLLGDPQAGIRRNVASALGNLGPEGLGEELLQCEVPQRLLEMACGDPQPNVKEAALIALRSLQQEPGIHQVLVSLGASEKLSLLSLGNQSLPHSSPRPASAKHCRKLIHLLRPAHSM

Sequence of Serine/threonine-protein kinase 24 (Homo sapiens) (Q9Y6E0 whole entry, looked up, canonical isoform): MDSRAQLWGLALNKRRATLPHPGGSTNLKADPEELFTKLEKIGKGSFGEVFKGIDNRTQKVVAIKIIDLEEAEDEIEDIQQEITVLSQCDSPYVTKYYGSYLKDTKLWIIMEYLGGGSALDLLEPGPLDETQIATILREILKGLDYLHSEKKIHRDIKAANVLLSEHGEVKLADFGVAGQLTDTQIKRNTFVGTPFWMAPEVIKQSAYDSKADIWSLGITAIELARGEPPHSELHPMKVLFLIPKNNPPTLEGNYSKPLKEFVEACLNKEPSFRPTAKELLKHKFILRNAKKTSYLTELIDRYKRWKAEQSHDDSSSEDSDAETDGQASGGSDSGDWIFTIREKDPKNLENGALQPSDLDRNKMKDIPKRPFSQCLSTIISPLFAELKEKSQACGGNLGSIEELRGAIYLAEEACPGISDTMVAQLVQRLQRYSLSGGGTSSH
Sequence of Phosphatidylinositol 4,5-bisphosphate 3-kinase catalytic subunit alpha isoform (Homo sapiens), P42336 [Q546K] (P42336 whole entry Q546K, canonical isoform): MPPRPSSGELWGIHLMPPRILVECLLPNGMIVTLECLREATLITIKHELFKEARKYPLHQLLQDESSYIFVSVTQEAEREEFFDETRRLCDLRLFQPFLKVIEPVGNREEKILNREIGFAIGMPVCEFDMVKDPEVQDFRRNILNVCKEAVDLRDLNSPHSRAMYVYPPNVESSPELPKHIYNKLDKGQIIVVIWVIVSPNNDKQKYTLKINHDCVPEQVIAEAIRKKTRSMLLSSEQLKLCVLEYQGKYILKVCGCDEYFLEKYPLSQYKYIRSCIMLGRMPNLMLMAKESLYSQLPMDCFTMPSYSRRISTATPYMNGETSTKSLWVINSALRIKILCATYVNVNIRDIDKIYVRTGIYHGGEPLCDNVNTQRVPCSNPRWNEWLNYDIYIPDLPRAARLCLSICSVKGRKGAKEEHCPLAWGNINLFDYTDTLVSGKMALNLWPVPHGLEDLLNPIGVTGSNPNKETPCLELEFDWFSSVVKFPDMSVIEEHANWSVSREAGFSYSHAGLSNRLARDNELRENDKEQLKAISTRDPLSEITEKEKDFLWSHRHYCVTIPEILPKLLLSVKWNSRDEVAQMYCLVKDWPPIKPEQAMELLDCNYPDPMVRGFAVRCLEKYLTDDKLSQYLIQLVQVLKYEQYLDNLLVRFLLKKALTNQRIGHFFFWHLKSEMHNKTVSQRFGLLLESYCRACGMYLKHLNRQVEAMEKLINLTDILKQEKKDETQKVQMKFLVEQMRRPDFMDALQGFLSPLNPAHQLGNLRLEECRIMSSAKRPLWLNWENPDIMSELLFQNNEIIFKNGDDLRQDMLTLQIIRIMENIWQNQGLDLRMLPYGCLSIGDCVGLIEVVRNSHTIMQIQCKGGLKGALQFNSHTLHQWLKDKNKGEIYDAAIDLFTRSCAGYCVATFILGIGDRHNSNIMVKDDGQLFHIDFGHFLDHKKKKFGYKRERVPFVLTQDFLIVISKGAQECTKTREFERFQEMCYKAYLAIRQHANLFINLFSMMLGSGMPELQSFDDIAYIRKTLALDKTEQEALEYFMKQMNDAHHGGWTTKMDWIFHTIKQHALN
Sequence of Ribosomal protein S6 kinase alpha-6 (Homo sapiens) (Q9UK32 whole entry, the tested form may be a part): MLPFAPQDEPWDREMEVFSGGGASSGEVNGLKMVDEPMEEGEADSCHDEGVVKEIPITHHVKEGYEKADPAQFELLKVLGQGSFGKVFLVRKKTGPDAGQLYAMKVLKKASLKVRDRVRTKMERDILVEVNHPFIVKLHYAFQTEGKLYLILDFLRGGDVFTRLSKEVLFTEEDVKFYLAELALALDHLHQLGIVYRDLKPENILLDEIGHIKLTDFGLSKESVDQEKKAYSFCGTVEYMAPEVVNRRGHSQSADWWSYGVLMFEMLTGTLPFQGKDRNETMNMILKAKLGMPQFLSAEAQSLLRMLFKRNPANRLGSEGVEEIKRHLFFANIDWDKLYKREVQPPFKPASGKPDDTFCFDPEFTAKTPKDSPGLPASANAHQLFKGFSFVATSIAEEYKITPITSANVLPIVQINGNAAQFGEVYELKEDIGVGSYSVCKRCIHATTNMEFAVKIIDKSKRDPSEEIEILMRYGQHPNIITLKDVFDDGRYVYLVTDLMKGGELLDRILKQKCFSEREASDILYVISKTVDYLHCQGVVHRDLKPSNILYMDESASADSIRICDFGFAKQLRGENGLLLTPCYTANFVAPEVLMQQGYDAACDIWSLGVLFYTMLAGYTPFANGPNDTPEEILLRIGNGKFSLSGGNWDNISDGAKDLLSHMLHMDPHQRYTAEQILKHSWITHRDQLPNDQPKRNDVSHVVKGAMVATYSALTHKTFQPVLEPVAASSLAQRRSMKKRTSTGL

| Compound | Activity [1] [%] | Activity [2] [%] | Activity [3] [%] | Activity [4] [%] | Activity [5] [%] |
| --- | --- | --- | --- | --- | --- |
| COc1cc2nc(C)nc(N[C@H](C)c3cccc(-c4cn[nH]c4)c3)c2cc1OC | 61 | 87 | 70 | 53 | 100 |
| COc1cc2ncnc(N[C@H](C)c3cccc4ccccc34)c2cc1OC | 100 | 83 | 100 | 95 | 100 |
